These results are taken from publication PMC8540265, “Activity of New Synthetic (2-Chloroethylthio)-1,4-naphthoquinones in Prostate Cancer Cells” (Pharmaceuticals, 2021).

The test system of assay [1] is 22Rv1 cells.
For assay [2], the system named is 22Rv1 cells. It is filed as cell-based, human.
The subject of another assay is PNT2 cells. Description: MTT cytotoxicity test, PNT2 cells. It is filed as cell-based, human. The procedure: (§1) A total of 6000 cells/well were seeded in 96-well plates, incubated overnight, and treated with the drugs in 100 μL/well of the corresponding fresh culture media for 48 h, as previously described. For combinational assays, the cells were pre-treated with the corresponding inhibitor for the indicated time and then co-treated with the tested compounds for 48 h. Then, 10 μL/well of MTT ((3-(4,5-dimethylthiazol-2-yl)-2,5-diphenyltetrazolium bromide) solution was added and the cell viability was measured as previously reported.
(Tetrazolium dyes change colour on reduction, which living cells bring about.)

Assay [3] has as its system 22Rv1 cells. Briefly: MTT cytotoxicity test, 22Rv1 cells. In kind it is cell-based, human. How it is done: as §1
Another assay has as its system PC-3 cells. In kind it is cell-based, human.
Setting [4] is: Homo sapiens, PNT2, 48 h, MTT, non-cancer prostate cells.

A word on the IC50: it is the concentration that gives 50% inhibition.

Where two headings read alike, the source gives them in different places.

As for “2-[2-(3-chlorophenyl)hydrazinylyidene]propanedinitrile [CCCP]”, the “effect on mitochondrial membrane potential (ΔΨm)” value in the assay with 22Rv1 cells [1] was “provoked mitochondrial membrane depolarization”. On to `COc1ccc(C[C@H]2NC[C@H](O)[C@H]2OC(C)=O)cc1` [Aniso, anisomycin], for which the “effect of pre-treatment with pan-caspase inhibitor zVAD on induced apoptosis” value with 22Rv1 cells [2] is “Comparable effects”. As for `COc1ccc2c(c1O)C(=O)C(O)=C(C)C2=O` [Compound 11, ancistroquinone B], the IC50 in the assay with PNT2 cells (setting [4]) is > 100 µM; in the assay with 22Rv1 cells [3] (Homo sapiens, 22Rv1, 48 h, MTT), > 100 µM. As to `CC1=C(O)C(=O)c2c(ccc(O)c2O)C1=O` [Compound 12, dioncoquinone B], the IC50 in the assay on PNT2 cells (setting [4]) is > 100 µM; in the assay with 22Rv1 cells [3] (Homo sapiens, 22Rv1, 48 h, MTT), 89.5 ± 24.9 µM.

As for `COc1cc2c(c(OC)c1OC)C(=O)C(CSCCCl)=C(O)C2=O` [Compound 34, 3-((2-Chloroethylthio)methyl)-2-hydroxy-5,6,7-trimethoxy-1,4-naphthoquinone], the IC50 with PNT2 cells and with 22Rv1 cells [3] was > 100 µM each time.

For `O=C1C(O)=C(CSCCCl)C(=O)c2c(O)c(Cl)c(Cl)c(O)c21` [Compound 37, 6,7-Dichloro-2-((2-chloroethylthio)methyl)-3,5,8-trihydroxy-1,4-naphthoquinone], in the assay with PNT2 cells, the half-maximal inhibitory concentration (IC50) was 28.2 ± 1.04 µM. Moreover, in the assay on 22Rv1 cells [3], the IC50 was 48.6 ± 12.2 µM and the “Selectivity Index [IC50(PNT2)/IC50(22Rv1)]” value came to 0.58. As to `COc1cc(O)c2c(c1O)C(=O)C(O)=C(CSCCCl)C2=O` [Compound 38, 2-((2-Chloroethylthio)methyl)-3,5,8-trihydroxy-6-methoxy-1,4-naphthoquinone], the IC50 with PNT2 cells and in the assay on 22Rv1 cells [3] was > 100 µM each time.

For the compound `CC(=O)O[C@@H]1O[C@H](CSC2=CC(=O)c3c(O)c(C)c(C)c(O)c3C2=O)[C@@H](OC(C)=O)[C@H](OC(C)=O)[C@H]1OC(C)=O` [SAB-1], in the assay on PC-3 cells, the “increase in activity in PC-3 cells on introduction of the 2-chloroethylthio group” value is 5 fold.
